Key:
[1] = test system: human fetal hepatocyte line L02; experiment: MTT assay on normal cell line L02; type: cell-based; settings: non-cancer cell line
Protocol: The drug candidate potency depends not only on its cytotoxicity in malignant cells, but also on its relative lack of toxicity toward normal cells.
(§1) The antiproliferative activities in vitro of Crolibulin and all the target compounds were determined by an MTT assay. Briefly, cells were seeded into 96-well plates at a density of 1–3 × 10^4/well (depends on the cell growth rate). 24 h later, triplicate wells were treated with media and the agents. After 72 h ofincubation at 37 °C in 5% CO2, the drug containing medium wasremoved and replaced by 100 mL of fresh medium with 5 mg/mLMTT solution. After 4 h of incubation, the medium with MTT was removed, and […] of DMSO was added to each well. The plates were gently agitated until the purple formazan crystals were dissolved, and the OD490 was determinedusing a microplate reader (MK3, Thermo, Germany). The data were calculated and plotted as the percent viability compared to the control. The 50% inhibitory concentration (IC50) was defined as theconcentration that reduced the absorbance of the untreated wells by 50% of the vehicle in the MTT assay.

[2] = test system: MKN-45 (human gastric cancer); experiment: MTT antiproliferative assay, MKN-45; type: cell-based; settings: 72 h, mean ± SD, read-out: IC50 (μM) ±SD MKN45
Protocol: (§2) To evaluate the antiproliferative activity, all synthesized derivatives (5a–5v and 7a–7h) were investigated for their activity in vitro against a panel of cancer cell lines including HT-29 (human colon cancer), H460 (human lung cancer), A549 (human lung carcinoma), MKN-45 (human gastric cancer) and SMMC-7721 (human liver cancer) by MTT assay. CA-4 and Crolibulin were served as positive control, and the results expressed as half-maximal inhibitory concentration (IC50). IC50 values are the concentrations that cause 50% inhibition of cancer cell growth (μM). Data represent the mean values ± standard deviation (SD) of independent experiments performed in triplicate.
(§3) Cell lines and culture conditions.The human colon carcinoma cell line HT-29, the human pulmonary carcinoma cell line A549, the human gastric carcinoma cell line MKN-45, the human breast cancer cell line MDA-MB-231 and human heptocarcinoma cellline SMMC-7721were cultured in RPMI-1640 mediumcontaining 10% FBS, 100 U/mL streptomycin and 100 U/mL penicillinat 37 °C in humidified atmosphere with 5% CO2. All of the cells were purchased from the American Type Culture Collection (ATCC, Manassas, VA).
as §1

[3] = test system: A549 (human lung carcinoma); experiment: MTT antiproliferative assay, A549; type: cell-based; settings: 72 h, mean ± SD
Protocol: as §2, §3, §1

[4] = test system: HT-29 (human colon cancer); experiment: MTT antiproliferative assay, HT-29; type: cell-based; settings: for IC50: Homo sapiens, HT-29, MTT, 72 h, mean ± SD, read-out: IC50 (μM) ±SD HT29
Protocol: as §2, §3, §1

H460 (human lung cancer) = experiment: MTT antiproliferative assay, H460; type: cell-based; settings: for IC50: Homo sapiens, NCI-H460, 72 h, MTT, 72 h, mean ± SD
Protocol: as §2, §1

[5] = test system: SMMC-7721 (human liver cancer); experiment: MTT antiproliferative assay, SMMC-7721; type: cell-based; settings: 72 h, mean ± SD
Protocol: Data represent the mean values ± standard deviation (SD) of independent experiments performed in triplicate.
All of the cells were purchased from the American Type Culture Collection (ATCC, Manassas, VA).
as §1, with “After 72 h ofincubation at 37 °C in 5% CO2, the drug containing medium wasremoved and replaced by 100 mL of fresh medium with 5 mg/mLMTT solution.” left out, “control.” for “control. The 50% inhibitory concentration (IC50) was defined as theconcentration that reduced the absorbance of the untreated wells by 50% of the vehicle in the MTT assay.”

[6] = test system: HT-29, H460, A549, MKN-45 and SMMC-7721 cell lines; experiment: MTT antiproliferative assay, panel of five cancer cell lines; type: cell-based, human; settings: ratio of IC50 values
Protocol: IC50 values are the concentrations that cause 50% inhibition of cancer cell growth (μM). Data represent the mean values ± standard deviation (SD) of independent experiments performed in triplicate.
as §1

Compound | effect on normal cell L02 [1] | IC50 [2] [µM] | IC50 [3] [µM] | IC50 [4] [µM] | IC50 (H460 (human lung cancer)) [µM] | IC50 [5] [µM] | melting point [°C] | fold increased potency over 5a (H), 5c (3-OMe) and 5d (4-OMe) [6] | fold more active than CA-4 on HT-29 ([4]; ratio of IC50 values) [fold] | fold more active than Crolibulin on HT-29 cell ([4]; ratio of IC50 values) | fold more active in H460 than 5h (H460 (human lung cancer); ratio of IC50 values)
Cc1ccccc1-c1cc(-c2c[nH]c3ccccc23)n2ccnc2c1C#N [5b, 5-(1H-indol-3-yl)-7-(o-tolyl)imidazo[1,2-a]pyridine-8-carbonitrile] | negligible effects | 1.52 ± 0.15 | 0.23 ± 0.04 | 0.16 ± 0.04 | 46.3 ± 5.26 | 0.82 ± 0.06 | 334.3 to 335.1 |  |  |  | 
N#Cc1c(-c2ccccc2F)cc(-c2c[nH]c3ccccc23)n2ccnc12 [5e, 7-(2-fluorophenyl)-5-(1H-indol-3-yl)imidazo[1,2-a]pyridine-8-carbonitrile] |  | 0.96 ± 0.06 | 5.67 ± 0.23 | 0.09 ± 0.01 | 1.16 ± 0.12 | 26.2 ± 2.82 | 304.6 to 308.8 | at least 1.7 fold |  |  | 
COc1ccc(-c2cc(-c3c[nH]c4ccccc34)n3ccnc3c2C#N)cc1 [5d, 5-(1H-indol-3-yl)-7-(4-methoxyphenyl)imidazo[1,2-a]pyridine-8-carbonitrile] |  | 1.64 ± 0.07 | 15.5 ± 2.13 | 0.43 ± 0.03 | 9.61 ± 0.76 | 71.5 ± 9.43 | 294.7 to 295.5 |  |  |  | 
N#Cc1c(-c2cc(Br)c(O)c(Br)c2)cc(-c2c[nH]c3ccccc23)n2ccnc12 [5m, 7-(3,5-dibromo-4-hydroxyphenyl)-5-(1H-indol-3-yl)imidazo[1,2-a]pyridine-8-carbonitrile] |  | 18.3 ± 2.13 | 2.45 ± 0.37 | 2.13 ± 0.12 | 1.15 ± 0.13 | 20.5 ± 3.53 | 290.5 to 294.2 |  |  |  | 
N#Cc1c(-c2ccc(O)c(Br)c2)cc(-c2c[nH]c3ccccc23)n2ccnc12 [5l, 7-(3-bromo-4-hydroxyphenyl)-5-(1H-indol-3-yl)imidazo[1,2-a]pyridine-8-carbonitrile] |  | 10.7 ± 1.85 | > 100 | 0.92 ± 0.08 | 1.07 ± 0.12 | 80.2 ± 7.54 | 309.2 to 312.3 |  |  |  | 
N#Cc1c(-c2ccccc2)cc(-c2c[nH]c3ccc(Br)cc23)n2ccnc12 [5r, 5-(5-bromo-1H-indol-3-yl)-7-phenylimidazo[1,2-a]pyridine-8-carbonitrile] |  | 7.38 ± 0.63 | 67.3 ± 7.43 | 1.74 ± 0.14 | 11.4 ± 1.68 | > 100 | 337.9 to 342.4 |  |  |  | 
N#Cc1c(-c2ccc(O)c(O)c2O)cc(-c2c[nH]c3ccccc23)n2ccnc12 [5p, 5-(1H-indol-3-yl)-7-(2,3,4-trihydroxyphenyl)imidazo[1,2-a]pyridine-8-carbonitrile] |  | 9.67 ± 0.73 | 1.18 ± 0.21 | 1.48 ± 0.27 | 0.25 ± 0.031 | 10.4 ± 1.64 | 297.8 to 301.4 |  |  |  | 
N#Cc1c(-c2ccccc2)cc(-c2c[nH]c3ccccc23)n2ccnc12 [5a, 5-(1H-indol-3-yl)-7-phenylimidazo[1,2-a]pyridine-8-carbonitrile] |  | 79.7 ± 8.1 | 86.4 ± 7.33 | 0.3 ± 0.04 | 2.79 ± 0.52 | 89.4 ± 2.6 | 338.3 to 339.7 |  |  |  | 
N#Cc1c(-c2ccc(F)cc2F)cc(-c2c[nH]c3ccccc23)n2ccnc12 [5i, 7-(2,4-difluorophenyl)-5-(1H-indol-3-yl)imidazo[1,2-a]pyridine-8-carbonitrile] |  | 0.03 ± 0.006 | 0.12 ± 0.03 | 0.08 ± 0.001 | 0.04 ± 0.001 | 13.6 ± 2.38 | 340.3 to 346.2 |  |  |  | about 29 fold
N#Cc1c(-c2cccc(Br)c2)cc(-c2c[nH]c3ccccc23)n2ccnc12 [5g, 7-(3-bromophenyl)-5-(1H-indol-3-yl)imidazo[1,2-a]pyridine-8-carbonitrile] |  | 64 ± 7.14 | > 100 | > 100 | 6.89 ± 0.67 | 79.2 ± 6.87 | 321.9 to 324.4 |  |  |  | 
N#Cc1c(-c2ccc(F)cc2Cl)cc(-c2c[nH]c3ccc(Br)cc23)n2ccnc12 [5v, 5-(5-bromo-1H-indol-3-yl)-7-(2-chloro-4-fluorophenyl)imidazo[1,2-a]pyridine-8-carbonitrile] |  | 7.35 ± 0.54 | 3.57 ± 0.23 | 0.26 ± 0.03 | 2.13 ± 0.24 | 56.3 ± 4.87 | 320.8 to 323.2 |  |  |  | 

The next lines start with results.

effect on normal cell L02 [1] | IC50 [2] [µM] | IC50 [3] [µM] | IC50 [4] [µM] | IC50 (H460 (human lung cancer)) [µM] | IC50 [5] [µM] | melting point [°C] | Compound | fold increased potency over 5a (H), 5c (3-OMe) and 5d (4-OMe) [6] | fold more active than CA-4 on HT-29 ([4]; ratio of IC50 values) [fold] | fold more active than Crolibulin on HT-29 cell ([4]; ratio of IC50 values) | fold more active in H460 than 5h (H460 (human lung cancer); ratio of IC50 values)
 | 20.5 ± 2.32 | 3.54 ± 0.41 | 0.03 ± 0.003 | 0.96 ± 0.06 | 21.6 ± 3.16 | 170.7 to 172.6 | CCNCc1cn2c(-c3c[nH]c4ccccc34)cc(-c3ccc(F)cc3Cl)c(C#N)c2n1 [7b, 7-(2-chloro-4-fluorophenyl)-2-((ethylamino)methyl)-5-(1H-indol-3-yl)imidazo[1,2-a]pyridine-8-carbonitrile] |  | ~1.7 | about 17 fold | 
 | 16.6 ± 1.13 | 7.53 ± 0.63 | 0.19 ± 0.02 | 0.71 ± 0.05 | 22.1 ± 3.41 | 175.4 to 178.4 | CN(C)Cc1cn2c(-c3c[nH]c4ccccc34)cc(-c3ccc(F)cc3Cl)c(C#N)c2n1 [7d, 7-(2-chloro-4-fluorophenyl)-2-((dimethylamino)methyl)-5-(1H-indol-3-yl)imidazo[1,2-a]pyridine-8-carbonitrile] |  |  |  | 
 | 13.8 ± 1.79 | 4.87 ± 0.38 | 0.21 ± 0.03 | 0.67 ± 0.05 | 24.6 ± 2.73 | 181.2 to 184.5 | CCN(CC)Cc1cn2c(-c3c[nH]c4ccccc34)cc(-c3ccc(F)cc3Cl)c(C#N)c2n1 [7e, 7-(2-chloro-4-fluorophenyl)-2-((diethylamino)methyl)-5-(1H-indol-3-yl)imidazo[1,2-a]pyridine-8-carbonitrile] |  |  |  | 
 | 12.2 ± 1.89 | 5.34 ± 0.67 | 0.04 ± 0.001 | 1.29 ± 0.21 | 27 ± 3.06 | 219.5 to 223.5 | CNCc1cn2c(-c3c[nH]c4ccccc34)cc(-c3ccc(F)cc3Cl)c(C#N)c2n1 [7a, 7-(2-chloro-4-fluorophenyl)-5-(1H-indol-3-yl)-2-((methylamino)methyl)imidazo[1,2-a]pyridine-8-carbonitrile] |  |  |  | 
 | 22.4 ± 2.51 | 6.18 ± 0.71 | 0.33 ± 0.04 | 0.96 ± 0.07 | 36.7 ± 4.92 | 222.2 to 225.3 | CC(C)NCc1cn2c(-c3c[nH]c4ccccc34)cc(-c3ccc(F)cc3Cl)c(C#N)c2n1 [7c, 7-(2-chloro-4-fluorophenyl)-5-(1H-indol-3-yl)-2-((isopropylamino)methyl)imidazo[1,2-a]pyridine-8-carbonitrile] |  |  |  | 
 | 1.63 ± 0.28 | 20.3 ± 2.32 | 0.56 ± 0.07 | 0.85 ± 0.06 | 11.3 ± 2.15 | 185.7 to 187.9 | CC1CCN(Cc2cn3c(-c4c[nH]c5ccccc45)cc(-c4ccc(F)cc4Cl)c(C#N)c3n2)CC1 [7f, 7-(2-chloro-4-fluorophenyl)-5-(1H-indol-3-yl)-2-((4-methylpiperidin-1-yl)methyl)imidazo[1,2-a]pyridine-8-carbonitrile] |  |  |  | 
 | 19.2 ± 1.35 | 8.79 ± 0.62 | 0.19 ± 0.02 | 1.32 ± 0.12 | 42.6 ± 4.12 | 195 to 199.7 | N#Cc1c(-c2ccc(F)cc2Cl)cc(-c2c[nH]c3ccccc23)n2cc(CN3CCCC3)nc12 [7g, 7-(2-chloro-4-fluorophenyl)-5-(1H-indol-3-yl)-2-(pyrrolidin-1-ylmethyl)imidazo[1,2-a]pyridine-8-carbonitrile] |  |  |  | 
